Source: patent publication US5663417A, “Carbocyclic sulfonamides” (Ono Pharmaceutical Co., Ltd., priority 1993, dated 1997)

Each molecule was assayed against prostaglandin E2 receptor (assay: inhibition of [^3 H]-PGE2 receptor binding in rat uterus membrane fraction). Conditions: Table I; 5 nM [^3 H]-PGE2, rat uterus crude membrane fraction, pH 6.0, 1 hour at room temperature; read-out: IC50, inhibitory effects of PGE2 receptor binding in rat.
Protocol: (i) The measurement of the inhibition of [^3 H]-PGE2 receptor binding
The standard assay mixture contained 5 nM [^3 H]-PGE2 (50 μl), test compounds (50 μl) and crude membrane fraction obtained from rat uterus (1.2 mg protein/ml, 100 μl) in a final volume of 200 μl (10 mM potassium phosphate pH 6.0, 0.1M NaCl (buffer A)). After incubation for 1 hour at room temperature, the reaction was stopped by the addition of 3 ml of ice-cold buffer A, after which the mixture was rapidly filtered through a Whatman GF/B glass filter. The radioactivity associated with the filter was measured in ACS II (Amarsham) by liquid scintillation counting. Percent inhibition of specific [^3 H]-PGE2 binding or IC50 value, the concentration required to compete with ^3 H-PGE2 receptor binding by 50% were calculated.

| SMILES | IC50 |
| --- | --- |
| CCCCCCS(=O)(=O)N[C@H]1C[C@H]2C[C@@H]([C@@H]1C/C=C\CCCC(=O)O)C2(C)C [3 (k), 7-[(1S,2S,3S,5R)-3-hexylsulfonylamino-6,6-dimethylbicyclo[3.1.1]heptan-2-yl]-5Z-heptenoic acid] | 25 nM |
| O=C(O)CCC/C=C\C1CCCC1CNS(=O)(=O)c1ccc(Br)cc1 (stereo not drawn) | 1800 nM |
| CCCCS(=O)(=O)N[C@H]1C[C@H]2C[C@@H]([C@@H]1C/C=C\CCCC(=O)O)C2(C)C [3 (j), 7-[(1S,2S,3S,5R)-3-butylsulfonylamino-6,6-dimethylbicyclo[3.1.1]heptan-2-yl]-5Z-heptenoic acid] | 5000 nM |
| CC1(C)[C@H]2C[C@H](NS(=O)(=O)c3ccccc3)[C@@H](C/C=C\CCCC(=O)O)[C@@H]1C2 [3 (a), 7-[(1S,2S,3S,5R)-3-phenylsulfonylamino-6,6-dimethylbicyclo[3.1.1]heptan-2-yl]-5Z-heptenoic] | 7600 nM |
| CC(C)(C)c1ccc(S(=O)(=O)N[C@H]2C[C@H]3C[C@@H]([C@@H]2C/C=C\CCCC(=O)O)C3(C)C)cc1 [3 (c), 7-[(1S,2S,3S,5R)-3-(4-tert-butylphenyl)sulfonylamino-6,6-dimethylbicyclo[3.1.1]heptan-2-yl]-5Z-heptenoic acid] | 6300 nM |
| CC1(C)[C@H]2C[C@H](NS(=O)(=O)c3ccc([N+](=O)[O-])cc3)[C@@H](C/C=C\CCCC(=O)O)[C@@H]1C2 [3 (h), 7-[(1S,2S,3S,5R)-3-(4-nitrophenyl)sulfonylamino-6,6-dimethylbicyclo[3.1.1]heptan-2-yl]-5Z-heptenoic] | 210 nM |
| CC1(C)[C@H]2C[C@H](NS(=O)(=O)c3ccc(I)cc3)[C@@H](C/C=C\CCCC(=O)O)[C@@H]1C2 [3 (g), 7-[(1S,2S,3S,5R)-3-(4-iodophenyl)sulfonylamino-6,6-dimethylbicyclo[3.1.1]heptan-2-yl]-5Z-heptenoic] | 54 nM |
| CCc1ccc(S(=O)(=O)N[C@H]2C[C@H]3C[C@@H]([C@@H]2C/C=C\CCCC(=O)O)C3(C)C)cc1 [3 (b), 7-[(1S,2S,3S,5R)-3-(4-ethylphenyl)sulfonylamino-6,6-dimethylbicyclo[3.1.1]heptan-2-yl]-5Z-heptenoic] | 570 nM |

More lines, now with the values ahead:

| IC50 | SMILES |
| --- | --- |
| 390 nM | O=C(O)CCCC=CC1C2CCC(C2)C1CNS(=O)(=O)c1ccc(Br)cc1 (stereo not drawn) [U.S. Pat. No. 5168101 1 (cc)] |
| 3500 nM | Cc1ccc(S(=O)(=O)N[C@H]2CCC[C@@H]2C/C=C\CCCC(=O)O)cc1 (relative stereo) [5 (g), 7-[(1R*,2S*)-2-tosylaminocyclopentyl-5Z-heptenoic acid] |
| 440 nM | CC1(C)[C@H]2C[C@H](NS(=O)(=O)c3ccc(Br)cc3)[C@@H](C/C=C\CCCC(=O)O)[C@@H]1C2 [Example 2, 7-[(1S,2S,3S,5R)-3-(4-bromophenyl)sulfonylamino-6,6-dimethylbicyclo [3.1.1]heptan-2-yl]-5Z-heptenoic acid] |
| 2400 nM | O=C(O)CCC/C=C\[C@@H]1CCC[C@@H](NS(=O)(=O)c2ccc(Br)cc2)C1 (relative stereo) [U.S. Pat. No. 5168101 1 (l)] |
| 3600 nM | Cc1ccc(S(=O)(=O)N[C@H]2C3CCC(CC3)[C@@H]2C/C=C\CCCC(=O)O)cc1 (relative stereo) [5 (a), 7-[(2S*,3S*)-3-tosylaminobicyclo[2.2.2]octan-2-yl]-5Z-heptenoic acid] |
| 770 nM | O=C(O)CCC/C=C\C1CC2CCC1C(NS(=O)(=O)c1ccc(Br)cc1)C2 (stereo not drawn) [U.S. Pat. No. 5168101 1 (a)] |
| 6400 nM | Cc1ccc(S(=O)(=O)NCC2C3CCC(C3)C2/C=C\CCCC(=O)O)cc1 (stereo not drawn) [U.S. Pat. No. 5168101 1 (p)] |
| 500 nM | O=C(O)CCC/C=C\C1CC2CC(NS(=O)(=O)c3ccc(Br)cc3)C1C2 (stereo not drawn) [U.S. Pat. No. 5168101 1 (c)] |
| 2000 nM | Cc1ccc(S(=O)(=O)NCC2C3C=CC(C3)C2C=CCCCC(=O)O)cc1 (stereo not drawn) [U.S. Pat. No. 5168101 1 (aa)] |

Same assay, conditions: Table II; 5 nM [^3 H]-PGE2, rat uterus crude membrane fraction, pH 6.0, 1 hour at room temperature; read-out: IC50, inhibitory effects of PGE2 receptor binding in rat

| IC50 | SMILES |
| --- | --- |
| 800 nM | CCCC/C=C/S(=O)(=O)N[C@H]1C[C@H]2C[C@@H]([C@@H]1C/C=C\CCCC(=O)O)C2(C)C [6 (14)] |
